According to patent US9566265B2, “Carbazole compounds and therapeutic uses of the compounds” (Incuron, LLC, priority 2008, dated 2017):
≈ marks a conversion by molar mass, not a printed value. Read-outs that look alike come from different tables or passages of the source.

Tests used:
p53 = p53 activation assay, p53 responsive luciferase reporter cell line; format: cell-based, human; details: Homo sapiens, 16 h, HT1080-L or RCC45ConALuc reporter cells, 16 h; read-out: EC50 value (p53 activation)
C. albicans = test: microbe, parasite or virus in culture; format: cell-based; details: Candida albicans
From the text: Candida spp. strains: 20 Candida spp. clinical isolates and one laboratory control strain (C. albicans SC5314) was used in the study. In the collection were included:
5 C. albicans isolates, two wild type strain (SC5314 and ATCC 36082), one echinocandin resistant isolate (M205) (6), and two fluconazole resistant clinical isolates (3795 and 3184) (7).

C. krusei = test: in vitro susceptibility CLSI M27A3, MIC; format: cell-based; details: Pichia kudriavzevii, ATCC6258; strain ATCC 6258, WT, Susceptible (naturally fluconazole resistant); read-out: MIC* (48 hs)
bacteria = test: antibacterial cytotoxicity assay, comparison with ampicillin control; format: cell-based
Protocol: In particular, the effect of carbazole compounds of the present invention on gram positive (Bacillus subtilis) and gram negative (DH5-α) bacteria was determined by the following procedure, and is summarized in FIGS. 13A and 13B.
Each library chemical to be tested requires 2 rows of a 96-well plate, thus 4 chemicals (e.g. W, X, Y, Z) can be tested in one plate simultaneously. In addition to test chemicals, each plate should include positive and negative controls. As positive control, ampicillin is used at 100 μg/ml. As a negative control, DMSO is used in an amount equal to the highest volume of test compound used (˜0.25% DMSO for 50 μM).
Besides a positive control added in one concentration on each plate, the positive control of ampicillin is added to each assay run in a full concentration range (3 fold dilutions) to ensure proper and robust assay performance (estimated by comparison of dose response curves among runs).
The average OD600 nm of the test compound solutions are compared to that of the DMSO control by dividing the average OD600 nm of the test solution by that of the DMSO control and multiplying by 100 to produce the % DMSO control (i.e. % cytotoxicity). The % DMSO control is plotted vs compound concentration to generate sigmoid shaped curves. After three runs are complete, the raw data for all three runs is used for IC50 calculations.

A. fumigatus = test: in vitro susceptibility CLSI M38A2, MIC; details: Aspergillus fumigatus
From the text: Eight Aspergillus spp. strains were used throughout the study. Six A. fumigatus, one A. flavus and one A. terreus also were used. The A. fumigatus group included two itraconazole-resistant strains (RIT13 and RIT5 strains) (1), one triazole cross-resistant strain (MUT10) (2, 3), one echinocandin cross-resistant strain (EMFRS678P) (4), and 2 wild type susceptible isolates (R21 and ATCC13073).

`CCN(CC)CCn1c2ccc3c(c2c2c4c(ccc21)C(=O)CC4)CCC3=O` [Example 15] was tested, and the EC50 (p53) was 30 nM, the MIC (C. albicans; read-out: MIC* (48 hs), strain 3184, CDR1 overexpression, Fluconazole- resistant) was 0.66 µM (≈ 0.247 µg/mL) and the MIC (C. albicans; strain ATCC36082, WT, Susceptible, read-out: MIC* (24 hs)) was 0.04 µM (≈ 0.015 µg/mL). It also gave an MIC (C. albicans; strain ATCC36082, WT, Susceptible, read-out: MIC* (48 hs)) of 0.04 µM (≈ 0.015 µg/mL), an MIC (C. albicans; strain SC5314, WT, Susceptible, read-out: MIC* (24 hs)) of 0.04 µM (≈ 0.015 µg/mL) and an MIC (C. albicans; strain SC5314, WT, Susceptible, read-out: MIC* (48 hs)) of 0.08 µM (≈ 0.03 µg/mL). The MIC (C. krusei) was 0.66 µM (≈ 0.247 µg/mL), the “effectiveness against bacteria compared with the ampicillin control” value (bacteria) was “more effective” and the MIC (A. fumigatus; ATCC13073, read-out: MIC* (24 hs), strain ATCC13073, WT, Susceptible) was 2.56 µM (≈ 0.959 µg/mL). It also gave an MIC (A. fumigatus; ATCC13073, read-out: MIC* (48 hs), strain ATCC13073, WT, Susceptible) of 5.13 µM (≈ 1.92 µg/mL), an MIC (A. fumigatus; read-out: 24 hs MIC Geom. Means, A. fumigatus strains) of 1.59 µM (≈ 0.595 µg/mL) and an MIC (A. fumigatus; read-out: MIC* (24 hs), strain EMFRS678P, Fks1pS678P, Echinocandin cross-resistant) of 1.28 µM (≈ 0.479 µg/mL). It also gave an MIC (A. fumigatus; read-out: MIC* (24 hs), strain MUT10, Cyp51Ap G138C, Triazole cross resistant) of 0.66 µM (≈ 0.247 µg/mL), an MIC (A. fumigatus; read-out: MIC* (24 hs), strain R21, WT, Susceptible) of 1.28 µM (≈ 0.479 µg/mL) and an MIC (A. fumigatus; read-out: MIC* (24 hs), strain RIT5, Itraconazole resistant) of 0.66 µM (≈ 0.247 µg/mL). The MIC (A. fumigatus; read-out: MIC* (24 hs), strain RIT13, Itraconazole resistant) was 1.61 µM (≈ 0.603 µg/mL), the MIC (A. fumigatus; read-out: MIC* (48 hs), strain EMFRS678P, Fks1pS678P, Echinocandin cross-resistant) was 2.56 µM (≈ 0.959 µg/mL) and the MIC (A. fumigatus; read-out: MIC* (48 hs), strain MUT10, Cyp51Ap G138C, Triazole cross resistant) was 1.28 µM (≈ 0.479 µg/mL). The MIC (A. fumigatus; read-out: MIC* (48 hs), strain R21, WT, Susceptible) was 2.56 µM (≈ 0.959 µg/mL), the MIC (A. fumigatus; read-out: MIC* (48 hs), strain RIT5, Itraconazole resistant) was 1.28 µM (≈ 0.479 µg/mL) and the MIC (A. fumigatus; read-out: MIC* (48 hs), strain RIT13, Itraconazole resistant) was 1.28 µM (≈ 0.479 µg/mL).
